According to publication PMC5290327, “SC83288 is a clinical development candidate for the treatment of severe malaria” (Nature Communications, 2017):
Converted amounts (≈) assume the structure as drawn. “And” between values parts separate entries of the source, which are not always exact repeats. Equal entries are not always repeated. Where two headings read alike, the source gives them in different places.

Experiments:
Plasmodium berghei = test: Rodent malaria model; type: in vivo; conditions: P. berghei, 30 mg kg-1 i.p. 1x4 days
Experimental: This was the case for both an in vivo 4 day dosing regimen of 30 mg kg^−1 per day and an ex vivo one-cycle growth inhibition assay. […] Differential therapeutic efficacy in various rodent model systems is a well-established phenomenon and is typically associated with charged compounds, such as positively charged amidines and negatively charged phosphoric acid or carboxylic acid containing drugs. The phenomenon is explained based on selective uptake of charged compounds through parasite-induced channels, termed new permeation pathways, in the host cell plasma membrane and species-specific characteristics of the new permeation pathways.

CXCR2 (IL-8B) (h) = target: T1, CXCR2 (IL-8B) (h) (Homo sapiens, UniProt P25025); test: Radioligand binding
T1 construct: Cerep
T1 sequence (P25025 1-360): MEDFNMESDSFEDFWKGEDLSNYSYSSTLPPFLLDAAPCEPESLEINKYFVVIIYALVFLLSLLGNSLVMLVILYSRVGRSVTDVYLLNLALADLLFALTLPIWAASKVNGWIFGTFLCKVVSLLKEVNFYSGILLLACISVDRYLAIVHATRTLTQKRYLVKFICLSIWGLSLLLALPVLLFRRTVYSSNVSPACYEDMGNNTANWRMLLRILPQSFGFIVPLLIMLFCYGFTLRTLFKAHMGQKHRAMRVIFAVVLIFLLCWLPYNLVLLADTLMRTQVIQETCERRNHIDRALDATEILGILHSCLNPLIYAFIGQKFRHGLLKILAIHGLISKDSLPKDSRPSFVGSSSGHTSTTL

M2 (h) = target: T2, M2 (h) (Homo sapiens, UniProt P08172); test: Radioligand binding
T2 construct: Cerep

D1 (h) = target: T3, D1 (h) (Homo sapiens, UniProt P21728); test: Radioligand binding
T3 construct: Cerep
T3 sequence (P21728 whole entry): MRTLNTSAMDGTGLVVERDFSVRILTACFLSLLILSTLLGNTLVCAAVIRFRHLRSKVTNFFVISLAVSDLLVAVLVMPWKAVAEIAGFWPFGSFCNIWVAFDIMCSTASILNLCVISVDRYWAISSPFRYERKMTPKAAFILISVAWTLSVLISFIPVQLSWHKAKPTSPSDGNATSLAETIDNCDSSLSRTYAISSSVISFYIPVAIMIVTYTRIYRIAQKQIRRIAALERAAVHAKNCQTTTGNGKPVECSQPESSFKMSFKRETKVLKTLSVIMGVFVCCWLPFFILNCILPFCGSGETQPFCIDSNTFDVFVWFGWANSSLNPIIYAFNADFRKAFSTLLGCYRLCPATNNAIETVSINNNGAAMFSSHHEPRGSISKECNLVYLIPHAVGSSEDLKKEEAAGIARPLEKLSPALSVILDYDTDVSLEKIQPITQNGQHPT

dopamine transporter (h) = target: T4, dopamine transporter (h) (Homo sapiens, UniProt Q01959); test: Radioligand binding
T4 construct: Cerep (contract screening)
T4 sequence (Q01959 whole entry): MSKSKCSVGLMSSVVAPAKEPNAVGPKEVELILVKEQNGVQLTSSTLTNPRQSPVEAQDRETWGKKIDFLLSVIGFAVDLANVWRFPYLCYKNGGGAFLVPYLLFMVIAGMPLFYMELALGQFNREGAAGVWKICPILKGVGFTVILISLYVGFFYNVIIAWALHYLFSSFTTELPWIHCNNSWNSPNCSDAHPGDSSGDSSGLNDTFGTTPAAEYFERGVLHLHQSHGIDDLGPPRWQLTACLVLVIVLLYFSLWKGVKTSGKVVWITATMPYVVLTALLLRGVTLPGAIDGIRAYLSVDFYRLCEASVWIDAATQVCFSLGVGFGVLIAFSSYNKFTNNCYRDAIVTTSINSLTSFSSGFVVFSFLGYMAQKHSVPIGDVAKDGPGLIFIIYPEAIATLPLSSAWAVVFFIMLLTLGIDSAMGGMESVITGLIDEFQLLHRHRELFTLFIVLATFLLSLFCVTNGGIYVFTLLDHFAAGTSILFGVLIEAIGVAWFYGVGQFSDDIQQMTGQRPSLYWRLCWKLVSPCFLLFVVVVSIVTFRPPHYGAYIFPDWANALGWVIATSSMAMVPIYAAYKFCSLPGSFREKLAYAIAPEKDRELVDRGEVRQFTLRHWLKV

CB1 (h) = target: T5, CB1 (h) (Homo sapiens, UniProt P21554); test: Radioligand binding
T5 construct: Cerep (contract study)
T5 sequence (P21554 whole entry): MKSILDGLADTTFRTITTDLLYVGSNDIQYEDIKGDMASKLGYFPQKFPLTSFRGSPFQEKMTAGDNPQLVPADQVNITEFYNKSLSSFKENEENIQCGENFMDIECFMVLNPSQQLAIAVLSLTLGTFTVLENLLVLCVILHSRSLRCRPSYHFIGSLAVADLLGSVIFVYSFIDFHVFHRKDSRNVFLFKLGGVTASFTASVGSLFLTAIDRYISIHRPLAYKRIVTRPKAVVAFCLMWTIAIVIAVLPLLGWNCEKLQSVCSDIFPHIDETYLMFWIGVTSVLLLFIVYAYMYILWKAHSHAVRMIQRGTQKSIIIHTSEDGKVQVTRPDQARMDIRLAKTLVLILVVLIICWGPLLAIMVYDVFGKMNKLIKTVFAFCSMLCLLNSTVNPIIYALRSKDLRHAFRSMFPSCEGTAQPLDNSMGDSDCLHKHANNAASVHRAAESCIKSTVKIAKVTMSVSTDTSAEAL

PK study = type: in vivo, mouse; conditions: for half-life: mouse; for MRT last: read-out: MRT0-t; for time of peak plasma concentration (Cmax): single i.p. dose in mice
Experimental: On the treatment day, all animals were weighed and the dosing volume was calculated for each individual animal according to its actual body weight. All animal were dosed once. Blood samples were taken at different time points and plasma was collected after centrifugation (10,000g, 10 min, 4 °C). Plasma samples were analysed by LC–MS/MS. […] All relevant observations were recorded. The PK studies in cynomolgus monkeys and beagle dogs were performed by the Laboratory of Pharmacology and Toxicology (LPT), Hamburg, and PK and toxicity studies in mice and rats were performed by the 4SC Discovery GmbH, Munich. PK parameters were obtained by a non-compartment analysis, using Kinetica 4.1 (Thermo Scientific).

ETA (h) = target: T6, ETA (h) (Homo sapiens, UniProt P25101); test: Radioligand binding
T6 construct: Cerep
T6 sequence (P25101 21-427): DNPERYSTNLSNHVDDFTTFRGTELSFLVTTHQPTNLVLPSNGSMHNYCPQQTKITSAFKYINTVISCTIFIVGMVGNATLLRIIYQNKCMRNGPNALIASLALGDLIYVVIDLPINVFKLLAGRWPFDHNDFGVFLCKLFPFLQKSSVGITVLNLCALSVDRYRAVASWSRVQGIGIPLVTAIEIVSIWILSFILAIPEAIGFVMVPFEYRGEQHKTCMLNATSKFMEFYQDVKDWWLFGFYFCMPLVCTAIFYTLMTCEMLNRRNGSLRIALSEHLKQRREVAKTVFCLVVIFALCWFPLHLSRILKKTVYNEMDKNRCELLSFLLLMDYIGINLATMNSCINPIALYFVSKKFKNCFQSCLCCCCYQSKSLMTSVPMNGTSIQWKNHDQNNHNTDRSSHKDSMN

b1 (h) = target: T7, b1 (h) (Homo sapiens, UniProt P08588); test: Radioligand binding
T7 construct: Cerep (contract study)
T7 sequence (P08588 whole entry): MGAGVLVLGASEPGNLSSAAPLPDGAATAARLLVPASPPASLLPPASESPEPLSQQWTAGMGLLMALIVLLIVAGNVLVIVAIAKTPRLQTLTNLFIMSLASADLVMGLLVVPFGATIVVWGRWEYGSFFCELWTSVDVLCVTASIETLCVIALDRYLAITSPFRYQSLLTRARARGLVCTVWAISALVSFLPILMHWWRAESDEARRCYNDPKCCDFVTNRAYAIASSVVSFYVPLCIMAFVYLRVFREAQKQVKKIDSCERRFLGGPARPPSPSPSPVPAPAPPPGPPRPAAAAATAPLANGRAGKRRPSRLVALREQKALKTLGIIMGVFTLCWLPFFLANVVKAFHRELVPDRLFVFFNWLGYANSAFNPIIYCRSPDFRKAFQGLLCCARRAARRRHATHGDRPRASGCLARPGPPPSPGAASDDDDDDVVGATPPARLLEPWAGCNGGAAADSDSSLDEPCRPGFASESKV

MC4 (h) = target: T8, MC4 (h) (Homo sapiens, UniProt P32245); test: Radioligand binding
T8 construct: Cerep
T8 sequence (P32245 whole entry): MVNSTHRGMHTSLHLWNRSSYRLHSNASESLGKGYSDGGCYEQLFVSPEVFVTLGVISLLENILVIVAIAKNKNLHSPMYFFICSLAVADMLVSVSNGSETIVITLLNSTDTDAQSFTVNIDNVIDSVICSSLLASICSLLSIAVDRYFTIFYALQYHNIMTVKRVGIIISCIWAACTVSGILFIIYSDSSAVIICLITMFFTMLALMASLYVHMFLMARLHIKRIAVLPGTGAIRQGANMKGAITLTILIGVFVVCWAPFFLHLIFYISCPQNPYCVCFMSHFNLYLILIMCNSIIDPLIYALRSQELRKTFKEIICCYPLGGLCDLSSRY

5-HT2A (h) = target: T9, 5-HT2A (h) (Homo sapiens, UniProt P28223); test: Radioligand binding
T9 construct: Cerep (contract screening)
T9 sequence (P28223 whole entry): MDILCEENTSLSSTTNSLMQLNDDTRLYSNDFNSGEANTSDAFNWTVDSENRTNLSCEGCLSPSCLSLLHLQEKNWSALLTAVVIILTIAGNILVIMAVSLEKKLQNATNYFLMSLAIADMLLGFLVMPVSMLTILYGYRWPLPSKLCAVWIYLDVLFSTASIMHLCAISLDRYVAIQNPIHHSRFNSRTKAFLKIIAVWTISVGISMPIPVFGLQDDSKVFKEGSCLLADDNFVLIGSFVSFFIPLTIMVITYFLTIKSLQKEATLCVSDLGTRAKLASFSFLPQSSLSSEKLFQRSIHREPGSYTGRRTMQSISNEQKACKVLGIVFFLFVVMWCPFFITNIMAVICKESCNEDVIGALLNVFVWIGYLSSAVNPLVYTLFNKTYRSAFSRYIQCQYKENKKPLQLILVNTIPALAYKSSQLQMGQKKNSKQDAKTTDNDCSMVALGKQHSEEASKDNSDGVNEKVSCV

KV channel = test: Radioligand binding
[1] = test system: P. falciparum strains 3D7 and W2; test: Efficacy in the Pf/NSG mouse model; type: in vivo, Plasmodium falciparum; conditions: for reduction of parasite burden within the first 24 h: 10.0 mg kg^−1 per day i.p.; for recrudescence of the infection: 3 weeks survey, exception 3D7-infected mice treated with 2.5 mg kg^−1 of SC81458; for In vivo PCT99.9%: i.p. once per day 4 days
CYP2E1 = CYP2E1 (Homo sapiens, UniProt P05181); test: CYP inhibition, human liver microsomes; conditions: for Remaining enzyme activity: CYP2E1, chlorzoxazone to 6-OH-chlorzoxazone, 10 µM
Chain of CYP2E1 (P05181 whole entry): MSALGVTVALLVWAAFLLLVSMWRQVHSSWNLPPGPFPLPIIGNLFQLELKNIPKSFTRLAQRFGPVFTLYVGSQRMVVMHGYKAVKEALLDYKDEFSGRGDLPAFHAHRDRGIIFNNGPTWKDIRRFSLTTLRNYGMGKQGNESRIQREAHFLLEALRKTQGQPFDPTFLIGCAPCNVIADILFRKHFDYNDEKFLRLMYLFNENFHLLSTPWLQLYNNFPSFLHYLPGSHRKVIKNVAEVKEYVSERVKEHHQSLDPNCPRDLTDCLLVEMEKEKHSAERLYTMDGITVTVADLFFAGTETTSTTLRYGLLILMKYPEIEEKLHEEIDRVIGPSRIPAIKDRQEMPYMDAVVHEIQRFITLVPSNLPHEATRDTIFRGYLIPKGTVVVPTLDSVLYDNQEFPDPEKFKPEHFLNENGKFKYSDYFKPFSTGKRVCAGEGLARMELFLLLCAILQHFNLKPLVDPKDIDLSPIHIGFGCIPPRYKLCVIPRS

[2] = Stability in physiological solutions; type: physicochemical; conditions: artificial gastric juice, simulated intestinal fluid, PBS, human plasma; 6 h at 37 °C
Experimental: SC81458 and SC83288 were soluble in water (890 and 940 μg ml^−1, respectively) and organic solvents. […] The compounds were stable in different physiological solutions, including artificial gastric juice, simulated intestinal fluid, phosphate-buffered saline and human plasma, when incubated for 6 h at 37 °C.

Balb C 3T3 cells = test: Cytotoxicity; conditions: 50 μM
P. falciparum strain 7G8 = test: microbe, parasite or virus in culture; type: cell-based; conditions: Plasmodium falciparum
Solubility in water = conditions: water
[3] = Stability in cultured blood cell cultures; type: in vitro ADME; conditions: 2 μM, at least 6 h, 37 °C
Experimental: An enriched young trophozoite-stage culture of P. falciparum Dd2 was obtain by magnetic purification and allowed to recover for 1 h at 37 °C in RPMI 1640 medium (Life Technologies) enriched with 1% hypoxanthine (C.C.Pro GmbH) and […] (Life Technologies). The experiment was performed in a total volume of 300 μl, at a haematocrit of 50%, in presence or absence of 2 μM of SC81458 or SC83288, for 6 h at 37 °C under shaking conditions. Each sample was subsequently treated with 1.2 ml of ice-cold acetonitrile, incubated on ice for 10 min and centrifuged for 15 min at 6,000g at 4 °C. Supernatants were stored at −80 °C until mass spectrometric measurement.

[4] = test system: Dd2 P. falciparum parasites; test: In vitro parasite reduction ratio assay (Sanz protocol); type: cell-based, Plasmodium falciparum; conditions: for In vitro PCT99.9% / In vitro lag phase: 10 times IC50, Dd2; for parasites killed within the first 48 h of treatment: in vitro assay and NSG mouse model
H1 (h) = target: T10, H1 (h) (Homo sapiens, UniProt P35367); type: binding
T10 construct: Cerep
T10 sequence (P35367 whole entry): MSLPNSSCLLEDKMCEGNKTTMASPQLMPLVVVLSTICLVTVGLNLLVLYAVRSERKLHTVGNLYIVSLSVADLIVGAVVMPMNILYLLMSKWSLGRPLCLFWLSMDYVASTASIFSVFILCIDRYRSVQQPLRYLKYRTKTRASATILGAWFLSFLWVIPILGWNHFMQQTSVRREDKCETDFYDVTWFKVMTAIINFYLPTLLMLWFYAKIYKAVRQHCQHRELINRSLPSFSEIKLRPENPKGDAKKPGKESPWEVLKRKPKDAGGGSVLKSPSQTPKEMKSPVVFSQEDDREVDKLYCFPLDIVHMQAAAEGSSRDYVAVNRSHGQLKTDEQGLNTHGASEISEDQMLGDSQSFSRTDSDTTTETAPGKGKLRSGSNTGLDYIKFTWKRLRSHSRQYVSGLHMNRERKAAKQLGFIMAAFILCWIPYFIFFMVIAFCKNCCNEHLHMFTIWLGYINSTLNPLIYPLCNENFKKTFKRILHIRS

5-HT5a (h) = target: T11, 5-HT5a (h) (Homo sapiens, UniProt P47898); test: Radioligand binding
T11 construct: Cerep (contract screening)
T11 sequence (P47898 whole entry): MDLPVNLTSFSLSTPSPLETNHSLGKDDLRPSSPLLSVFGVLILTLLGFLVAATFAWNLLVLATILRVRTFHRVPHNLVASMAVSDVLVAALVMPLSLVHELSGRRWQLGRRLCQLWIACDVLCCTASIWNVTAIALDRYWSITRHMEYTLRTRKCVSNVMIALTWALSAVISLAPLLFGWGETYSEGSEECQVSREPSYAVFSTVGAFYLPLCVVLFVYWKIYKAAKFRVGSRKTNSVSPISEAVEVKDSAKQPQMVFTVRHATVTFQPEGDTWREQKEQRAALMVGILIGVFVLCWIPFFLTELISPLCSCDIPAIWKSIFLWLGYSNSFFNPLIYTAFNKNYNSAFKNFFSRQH

[5] = plasma, ip, mouse i.p. 20 mg kg^−1
[6] = plasma, iv, mouse i.v. 2 mg kg^−1

CCCCN1CCN(C(=N)c2cccc(NC(=O)Nc3ccc(S(=O)(=O)NCc4ccc(S(N)(=O)=O)cc4)cc3)c2)CC1 [SC81458, 4-(3-(3-((4-butylpiperazin-1-yl)(imino)methyl)phenyl)ureido)-N-(4-sulfamoylbenzyl) benzenesulfonamide]
Outcome (Plasmodium berghei): inactive | Inhibition of control specific binding (CXCR2 (IL-8B) (h)): -8% | Inhibition of control specific binding (M2 (h)): 45% | Inhibition of control specific binding (D1 (h)): 51% | Inhibition of control specific binding (dopamine transporter (h)): 79% | Inhibition of control specific binding (CB1 (h)): 21% | CL (PK study; mouse i.p. 20 mg kg^−1): 4,607 ml h^−1 kg^−1 | half-life (PK study; plasma, ip, 20 mg/kg, mouse i.p. 20 mg kg^−1, read-out: t1/2 effective): 52 min | half-life (PK study; plasma, ip, 20 mg/kg, mouse i.p. 20 mg kg^−1, read-out: t1/2 terminal): 860 min | AUC(0-inf) (PK study; [5]): 4340 ng·h/mL | Cmax (PK study; [5]): 7380 ng/mL | Tmax (PK study; [5]): 30 min | bioavailability (PK study; plasma, ip, mouse i.p. 20 mg kg^−1, read-out: F, relative bioavailability compared to i.v.): 62% | MRT last (PK study; [5]): 74.4 min | time of peak plasma concentration (Cmax) (PK study): ≤ 30 min | Inhibition of control specific binding (ETA (h)): 1% | Inhibition of control specific binding (b1 (h)): -2% | Inhibition of control specific binding (MC4 (h)): -10% | Inhibition of control specific binding (5-HT2A (h)): 17% | Inhibition of control specific binding (KV channel): 0% | reduction of parasite burden within the first 24 h [1]: ~97% | recrudescence of the infection [1]: no recrudescence | In vivo PCT99.9% ([1]; humanized NSG mouse): <48 h | Remaining enzyme activity (CYP2E1): 106% | stability in physiological solutions [2]: stable | in vitro propagation / cytotoxicity (Balb C 3T3 cells): did not affect | IC50 (P. falciparum strain 7G8): 18 ± 5 nM | solubility (Solubility in water): 890 µg/mL (≈ 1420 µM) | stability in human red blood cells and P. falciparum cultures [3]: stable | In vitro PCT99.9% [4]: 37±4 h and 37±4 (4) h | In vitro lag phase [4]: <5 h | parasites killed within the first 48 h of treatment [4]: ≥ 99.9% | Inhibition of control specific binding (H1 (h)): 6% | Inhibition of control specific binding (5-HT5a (h)): 1%

COC(=O)N1CCN(C(=N)c2cccc(NC(=O)Nc3ccc(S(=O)(=O)NCc4ccc(S(N)(=O)=O)cc4)cc3)c2)CC1 [SC83288, methyl 4-(imino(3-(3-(4-(N-(4-sulfamoylbenzyl)sulfamoyl)phenyl)ureido)phenyl)methyl) piperazine-1-carboxylate]
Outcome (Plasmodium berghei): inactive | Inhibition of control specific binding (CXCR2 (IL-8B) (h)): -1% | Inhibition of control specific binding (M2 (h)): 68% | Inhibition of control specific binding (D1 (h)): 79% | Inhibition of control specific binding (dopamine transporter (h)): 82% | Inhibition of control specific binding (CB1 (h)): 1% | VC (PK study; mouse i.v. 2 mg kg^−1): 0.549 L/kg | half-life (PK study; plasma, ip, 10 mg/kg, mice, i.p. 2.5, 5.0 and 10.0 mg kg^−1, read-out: effective half time t1/2): 29 to 55 min | half-life (PK study; plasma, iv, 2 mg/kg, mouse i.v. 2 mg kg^−1, read-out: t1/2 effective): 12 min | half-life (PK study; plasma, iv, 2 mg/kg, mouse i.v. 2 mg kg^−1, read-out: t1/2 initial): 9 min | half-life (PK study; plasma, iv, 2 mg/kg, mouse i.v. 2 mg kg^−1, read-out: t1/2 terminal): 43 min | AUC(0-inf) (PK study; plasma, ip, mouse i.p. 10 mg kg^−1): 2020 ng·h/mL | AUC(0-inf) (PK study; [6]): 891 ng·h/mL | C0 (PK study; [6]): 3640 ng/mL | Cmax (PK study; [6]): 2560 ng/mL | Tmax (PK study; [6]): 5 min | clearance (PK study; [6]): 37.4 mL/min/kg | MRT last (PK study; [6]): 16.8 min | time of peak plasma concentration (Cmax) (PK study): ≤ 30 min | Inhibition of control specific binding (ETA (h)): 0% | Inhibition of control specific binding (b1 (h)): 7% | Inhibition of control specific binding (MC4 (h)): 4% | Inhibition of control specific binding (5-HT2A (h)): 30% | Inhibition of control specific binding (KV channel): 2% | reduction of parasite burden within the first 24 h [1]: ~93% | recrudescence of the infection [1]: no recrudescence | free-minimal parasiticidal concentration (MPC) ([1]; NSG mice): 200 nM | ED50 (free plasma concentration) ([1]; NSG mice, 2 days after commencement of treatment, sigmoidal model fit): 45 nM | ED90 (free plasma concentration) ([1]; NSG mice, sigmoidal model fit): 80 nM | reduction of parasitemia over a replicative cycle of 48 h ([1]; humanized NSG mouse): 99.9% | In vivo PCT99.9% ([1]; humanized NSG mouse): 48 h | In vivo logPRR ([1]; humanized NSG mouse, no distinction between strains): 3.0 | Remaining enzyme activity (CYP2E1): 68% | inhibition at 20 min, 10 µM (CYP2E1; human, pooled liver microsomes, pH 7.4, probe chlorzoxazone (10 μM)): 30% | stability in physiological solutions [2]: stable | in vitro propagation / cytotoxicity (Balb C 3T3 cells): did not affect | IC50 (P. falciparum strain 7G8): 10 ± 1 nM | solubility (Solubility in water): 940 µg/mL (≈ 1490 µM) | stability in human red blood cells and P. falciparum cultures [3]: stable | In vitro PCT99.9% [4]: 51±6 h and 51±6 (4) h | In vitro lag phase [4]: <5 h | parasites killed within the first 48 h of treatment [4]: ≥ 99.9% | Inhibition of control specific binding (H1 (h)): 8% | Inhibition of control specific binding (5-HT5a (h)): 16%
